In patent publication US20200048308A1, “INFLUENZA VIRUS NE[…]” (priority 2016, published 2020):
Like-named read-outs stand apart in the source and are kept apart here.

Tests used:
[1] = biological target: H1/Cal HA (biotinylated full length trimeric HA, A/California/07/2009) (Influenza A virus, UniProt C3W5X2); assay: AlphaLISA competition assay with HB80.4, H1/Cal HA; assay type: binding, influenza A virus H1N1 A/California/07/2009
Text: (§1) Binding competition studies were designed to test compounds of the invention for competition with other well characterized HA binding proteins (such as e.g. CR9114, CR6261 and HB80.4) with known epitopes on HA. The epitopes where either located at the stem of the HA (viral membrane proximal part of HA) or, for control purposes, at the head of HA (viral membrane distal part of HA). If competition was observed, it was assumed that both molecules bind to a similar or at least overlapping epitope at the surface of HA. Competition with a HA head- and stem-binder was interpreted as unspecific binding.
(§2) Hereto an AlphaLISA competition assay (Perkin Elmer) was established which relied on biotinylated full length and trimeric HA proteins (Protein Sciences, 10 μL, 0.5 nM final concentration in 50 μL) bound by HA-specific binders. The interaction between HA and the binder was detected after 1 h incubation at room temperature (RT) with two beads, a streptavidin donor bead recognizing HA (10 μL of 10 μg/mL) and an anti Fc bead (10 μg/mL) recognizing the IgGs used. If after an additional hour of incubation at RT the excited donor bead (680 nm) and acceptor bead are in close proximity, an energy transfer (singlet oxygen) can be measured as a luminescence signal of the acceptor bead (Perkin Elmer EnVision plate reader). The signal intensity in this homogeneous assay format is directly proportional to the binding strength (affinity/avidity) between both binding partners.

[2] = biological target: H1/Nca HA (biotinylated full length trimeric HA, A/New Caledonia/20/1999) (Influenza A virus, UniProt Q6WG00); assay: AlphaLISA competition assay with HB80.4, H1/NCa HA; assay type: binding, influenza A virus H1N1 A/New Caledonia/20/1999
Text: as §1, §2

[3] = test system: influenza virus A/New Caledonia (H1); assay: Virus neutralization assay (VNA) on Calu-3 cells; assay type: cell-based, influenza A virus H1N1 A/New Caledonia/20/1999
[4] = ALC_H1_NCa_HB80.4 calculated pIC50, AlphaLISA competition with HB80.4 on H1 NCa HA, 0.5 nM HA
[5] = Calu-3 cells, 5 TCID50/50 μL virus, 4 days, NP ELISA readout

For CSCC[C@@H]1NC(=O)CNC(=O)CNC(=O)[C@H](C)NC(=O)[C@H](C(C)C)NC(=O)CNC(=O)[C@H](CC(C)C)NC(=O)[C@@H]2CCCN2C(=O)[C@H](CC(=O)O)NC(=O)[C@H](CCC(=O)O)NC(=O)[C@H](Cc2ccc(O)cc2)NC(=O)[C@@H](NC(=O)CCC(=O)O)CSSC[C@@H](C(N)=O)NC1=O [CP141070, Suc-Cys-Tyr-Glu-Asp-Pro-Leu-Gly-Val-Ala-Gly-Gly-Met-Cys-NH2], the IC50 [1] was 6310 nM, the IC50 [2] was 3980 nM and the “VNA_H1_NCa_Calu3 pIC50” value [3] was 4.4.
For CSCC[C@@H]1NC(=O)CNC(=O)CNC(=O)[C@H](C)NC(=O)[C@H](C(C)C)NC(=O)CNC(=O)[C@H](CC(C)C)NC(=O)[C@@H]2CCCN2C(=O)[C@H](CC(=O)O)NC(=O)[C@H](CCC(=O)O)NC(=O)[C@H](Cc2ccc(O)cc2)NC(=O)[C@H](CC(C)C)NC(=O)[C@@H](NC(=O)CCC(=O)O)CSSC[C@@H](C(N)=O)NC(=O)CNC1=O [CP141069, Suc-Cys-Leu-Tyr-Glu-Asp-Pro-Leu-Gly-Val-Ala-Gly-Gly-Met-Gly-Cys-NH2], the IC50 [1] was 316 nM, the IC50 [2, 4] was 158 nM and the “VNA_H1_NCa_Calu3 pIC50” value [3, 5] was 6.1.
In the case of CSCC[C@@H]1NC(=O)CNC(=O)CNC(=O)[C@H](C)NC(=O)[C@H](C(C)C)NC(=O)CNC(=O)[C@H](CC(C)C)NC(=O)[C@@H]2CCCN2C(=O)[C@H](CC(=O)O)NC(=O)[C@H](CCC(=O)O)NC(=O)[C@H](Cc2ccc(O)cc2)NC(=O)[C@H](CC(C)C)NC(=O)[C@H](CO)NC(=O)[C@H](C(C)C)NC(=O)[C@@H]2CCCN2C(=O)[C@H]2CCCN2C(=O)[C@H](Cc2ccc(O)cc2)NC(=O)[C@H](C(C)C)NC(=O)CNC1=O [CP141085, Pro-Val-Ser-Leu-Tyr-Glu-Asp-Pro-Leu-Gly-Val-Ala-Gly-Gly-Met-Gly-Val-Tyr-D-Pro], the IC50 [1] is reported as 15.8 nM, the IC50 [2, 4] is reported as 12.6 nM and the IC50 ([2]; IC50 in the alphalisa assay, best compound, strain not stated in text (matches pIC50 7.9 on H1 NCa)) is reported as 13 nM. For the same compound, the “VNA_H1_NCa_Calu3 pIC50” value [3, 5] was 5.9.
In the case of CSCC[C@@H]1NC(=O)CNC(=O)CNC(=O)[C@H](C)NC(=O)[C@H](C(C)C)NC(=O)CNC(=O)[C@H](CC(C)C)NC(=O)[C@@H]2CCCN2C(=O)[C@H](CC(=O)O)NC(=O)[C@H](CCC(=O)O)NC(=O)[C@H](Cc2ccc(O)cc2)NC(=O)[C@H](CC(C)C)NC(=O)[C@@H]2CCCN2C(=O)[C@H]2CCCN2C(=O)CNC1=O [CP141086, Pro-Leu-Tyr-Glu-Asp-Pro-Leu-Gly-Val-Ala-Gly-Gly-Met-Gly-D-Pro], the IC50 [1] is reported as 1580 nM, the IC50 [2, 4] is reported as 200 nM and the “VNA_H1_NCa_Calu3 pIC50” value [3, 5] is reported as 4.6.
In the case of CSCC[C@@H]1NC(=O)CNC(=O)CNC(=O)[C@H](C)NC(=O)[C@H](C(C)C)NC(=O)CNC(=O)[C@H](CC(C)C)NC(=O)[C@@H]2CCCN2C(=O)[C@H](CC(=O)O)NC(=O)[C@H](CCC(=O)O)NC(=O)[C@H](Cc2ccc(O)cc2)NC(=O)[C@H](CC(C)C)NC(=O)CNC(=O)[C@H]2CCCN2C(=O)CNC1=O [CP141084, Gly-Leu-Tyr-Glu-Asp-Pro-Leu-Gly-Val-Ala-Gly-Gly-Met-Gly-D-Pro], the IC50 [1] is reported as 794 nM, the IC50 [2, 4] is reported as 398 nM and the “VNA_H1_NCa_Calu3 pIC50” value [3, 5] is reported as 5.7.
For CSCC[C@@H]1NC(=O)CNC(=O)CNC(=O)[C@H](C)NC(=O)[C@H](C(C)C)NC(=O)CNC(=O)[C@H](CC(C)C)NC(=O)[C@@H]2CCCN2C(=O)[C@H](CC(=O)O)NC(=O)[C@H](CCCNC(=N)N)NC(=O)[C@H](Cc2ccc(O)cc2)NC(=O)[C@H](CC(C)C)NC(=O)[C@@H](NC(=O)CCC(=O)O)CSSC[C@@H](C(N)=O)NC(=O)CNC1=O [CP141076, Suc-Cys-Leu-Tyr-Arg-Asp-Pro-Leu-Gly-Val-Ala-Gly-Gly-Met-Gly-Cys-NH2], the IC50 [1] was 100 nM, the IC50 [2, 4] was 126 nM and the “VNA_H1_NCa_Calu3 pIC50” value [3, 5] was 6.0.
For CSCC[C@@H]1NC(=O)CNC(=O)CNC(=O)[C@H](C)NC(=O)[C@H](C(C)C)NC(=O)CNC(=O)[C@H](CC(C)C)NC(=O)[C@@H]2CCCN2C(=O)[C@H](CC(=O)O)NC(=O)[C@H](CCC(=O)O)NC(=O)[C@H](Cc2ccc(O)cc2)NC(=O)[C@H](CC(C)C)NC(=O)[C@H](CO)NC(=O)[C@H]2CCCN2C(=O)[C@@H]2CCCN2C(=O)[C@H](C(C)C)NC(=O)CNC1=O [CP141091, D-Pro-Ser-Leu-Tyr-Glu-Asp-Pro-Leu-Gly-Val-Ala-Gly-Gly-Met-Gly-Val-Pro], the IC50 [1] was 5010 nM, the IC50 [2] was 6310 nM and the “VNA_H1_NCa_Calu3 pIC50” value [3] was 4.2.
With CSCC[C@@H]1NC(=O)CNC(=O)CNC(=O)[C@H](C)NC(=O)[C@H](C(C)C)NC(=O)CNC(=O)[C@H](CC(C)C)NC(=O)[C@@H]2CCCN2C(=O)[C@H](CC(=O)O)NC(=O)[C@H](CCC(=O)O)NC(=O)[C@H](Cc2ccc(O)cc2)NC(=O)[C@H](CC(C)C)NC(=O)[C@H](CO)NC(=O)[C@H](C(C)C)NC(=O)CNC(=O)[C@H]2CCCN2C(=O)[C@H](Cc2ccc(O)cc2)NC(=O)[C@H](C(C)C)NC(=O)CNC1=O [CP141082, Gly-Val-Ser-Leu-Tyr-Glu-Asp-Pro-Leu-Gly-Val-Ala-Gly-Gly-Met-Gly-Val-Tyr-D-Pro] the IC50 [1] was 20 nM, the IC50 [2, 4] was 20 nM and the “VNA_H1_NCa_Calu3 pIC50” value [3, 5] was 4.3.
With CSCC[C@@H]1NC(=O)CNC(=O)CNC(=O)[C@H](C)NC(=O)[C@H](C(C)C)NC(=O)CNC(=O)[C@H](CC(C)C)NC(=O)[C@@H]2CCCN2C(=O)[C@H](CC(=O)O)NC(=O)[C@H](CCC(=O)O)NC(=O)[C@H](Cc2ccc(O)cc2)NC(=O)[C@H](CC(C)C)NC(=O)CNC1=O [CP141088, Leu-Tyr-Glu-Asp-Pro-Leu-Gly-Val-Ala-Gly-Gly-Met-Gly] the IC50 [1] was 251 nM, the IC50 [2] was 251 nM and the “VNA_H1_NCa_Calu3 pIC50” value [3] was 4.4.
For CSCC[C@@H]1NC(=O)CNC(=O)CNC(=O)[C@H](C)NC(=O)[C@H](C(C)C)NC(=O)CNC(=O)[C@H](CC(C)C)NC(=O)[C@@H]2CCCN2C(=O)[C@H](CC(=O)O)NC(=O)[C@H](CCC(=O)O)NC(=O)[C@H](Cc2ccc(O)cc2)NC(=O)[C@H](CC(C)C)NC(=O)CNC(=O)CNC1=O [CP141087, Leu-Tyr-Glu-Asp-Pro-Leu-Gly-Val-Ala-Gly-Gly-Met-Gly-Gly], the IC50 [1] was 501 nM, the IC50 [2] was 631 nM and the “VNA_H1_NCa_Calu3 pIC50” value [3] was 4.9.
